Experiment [1] addresses T1, human recombinant bradykinin B1 receptor (Homo sapiens, UniProt P46663).
T1 construct: purchased Euroscreen ES-091; host or cells: CHO cells
T1 sequence (P46663 1-353): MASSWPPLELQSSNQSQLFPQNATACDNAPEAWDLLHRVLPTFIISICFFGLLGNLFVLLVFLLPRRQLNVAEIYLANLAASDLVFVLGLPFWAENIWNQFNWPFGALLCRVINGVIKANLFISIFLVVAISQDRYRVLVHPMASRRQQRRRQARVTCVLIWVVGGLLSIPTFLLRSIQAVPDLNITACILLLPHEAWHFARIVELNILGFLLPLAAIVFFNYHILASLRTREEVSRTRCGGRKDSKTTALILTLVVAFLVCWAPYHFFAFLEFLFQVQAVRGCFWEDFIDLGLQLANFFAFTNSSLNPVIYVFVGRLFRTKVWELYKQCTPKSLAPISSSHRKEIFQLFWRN
Briefly: Human recombinant bradykinin B1 receptor binding. As for the experimental part:
1. Human Recombinant Bradykinin B1 Receptor Binding
Binding assays were carried out on human recombinant bradykinin) receptors (expressed in CHO cells) according to the Euroscreen Technical Data Sheet (Cat.No.:ES-091). 20 μg protein/tube was incubated with [3,4-prolyl-3,4-^3H(N)]-[Des-Arg^10] Kallidin as radioligand. Non specific binding was determined in the presence of 10 μM Lys-des-Arg^9-Bradykinin. The final incubation volume was 250 μl. Samples were incubated for 15 min. at 25° C. then were rapidly vacuum filtered through GF/B filters presoaked for at least 1 h in 0.5% PEI. Radioactivity was determined by liquid scintillation spectroscopy.

For experiment [2], the target named is T2, recombinant human B1 receptors (Homo sapiens, UniProt P46663).
T2 construct: host or cells: CHO (CHO-B1)
T2 sequence (P46663 1-353): T1 sequence (P46663 1-353)
Briefly: Functional assay: cytosolic calcium ion concentration measured with plate reader fluorimeter in CHO-B1 cells, agonist LysDABK. Type of experiment: cell-based. The procedure: Assessment of Antagonist Potency at B1 and B2 Receptors In Vitro by Measurement of Cytosolic Calcium Ion Concentration with a Plate Reader Fluorimeter in Cells Expressing Recombinant Human B1 or B2 Receptors
Chinese hamster ovary (CHO) cells stably expressing recombinant human B1 (CHO-B1, Euroscreen) or B2 (CHO-B2, Perkin-Elmer) receptors were cultured in Dulbecco's Modified Eagle's Medium (DMEM) containing 10% Fetal Calf Serum (FCS), 100 U/ml penicillin, 0.1 mg/ml streptomycin, 0.25 μg/ml amphotericin B, 1% Minimum Essential Medium Eagle (MEM), non essential amino acid solution, 600 μg/ml G418, 1% pyruvate (for the B2 cell line). Cells were kept at 37° C. in a humidified incubator in an atmosphere of 5% CO2/95% air and were passaged 1:4 three times a week. Cells were plated at 1.5-2.5×10^4 cell/well on standard 96-well microplates, measurements of cytosolic calcium ion concentration ([Ca^2+]i) were carried out 1-2 days after cell plating.
Measurements of [Ca^2+]i were carried out on CHO-B1 and CHO-B2 cells stably expressing human B1 and B2 receptors, respectively. Cells were grown in standard 96-well microplates and before the measurement were loaded with a fluorescent Ca^2+-sensitive dye, fluo-4/AM (2 μM): after removing the culture medium the dye was added to the cells (dissolved in assay buffer: 145 mM NaCl, 5 mM KCl, 2 mM MgCl2, 2 mM CaCl2, 10 mM HEPES, 20 mM D-glucose, 2 mM probenecid, 100 μl/well) and cells were incubated at 37° C. in a humidified incubator in an atmosphere of 5% CO2/95% air for 40-120 min. To stop dye loading cells were washed twice with assay buffer. After washing, various concentrations of the test compounds (diluted in extracellular medium from a DMSO stock solution, final DMSO concentration was <0.1%) or buffer were added to each well depending on the experimental setup. After incubation at 37° C. for 20-25 min. baseline and agonist-evoked changes of [Ca^2+]i were measured column by column with a plate reader fluorimeter (Fluoroskan Ascent, Labsystems). Excitation and detection of emission was carried out from the bottom of the plate. Filters used for Fluo-4: excitation filter—485 nm, emission filter—538 nm. The whole measurement process was performed at 37° C. and was controlled by custom software. Inhibitory potency of the test compounds was assessed by measuring the reduction in the agonist-evoked [Ca^2]i-elevation in the presence of different concentrations of the compounds. The agonists were LysDABK for CHO-B1, and bradykinin for CHO-B2 cells. Agonists were applied at an EC80 concentration, the EC80-values were derived from daily determined dose-response curves. Fluorescence data were expressed as ΔF/F (fluorescence change normalized to baseline). All treatments on a single plate were measured in multiple wells. Data from all wells with the same treatment were averaged and the average values were used for analysis. Inhibitory potency of a compound at a single concentration point was expressed as percent inhibition of the control agonist response. Sigmoidal concentration-inhibition curves were fitted to the data (derived from at least three independent experiments) and IC50-values were determined as the concentration that produces half of the maximal inhibition caused by the compound.

Setting [3] is: radioligand [3H]-[Des-Arg10] Kallidin, CHO cell membranes, read-out: B1 binding.
Where [4] appears, read: CHO-B1 cells, LysDABK at EC80, [Ca2+]i, read-out: B1 func.

Counter-ions that a name gives are not always drawn. Like-named read-outs stand apart in the source and are kept apart here.

Consider 19 compounds from US20100075978A1, “SULFONAMIDE DERIVATIVES AS BRADYKININ ANTAGONISTS” (priority 2006, published 2010).

Consider `O=C(NCCCN1CCC(N2CCCCC2)CC1)c1ccc(S(=O)(=O)Nc2cc(F)ccc2Oc2ccc(Br)cc2)cc1` [Example 102, N-(3-[1,4′]Bipiperidinyl-1′-yl-propyl)-4-[2-(4-bromo-phenoxy)-5-fluoro-phenylsulfamoyl]-benzamide], for which the Ki in experiment [1] (setting [3]) was under 20 nM. For the same compound, in experiment [2] (setting [4]), the IC50 was under 20 nM.
On to `O=C(NCCCN1CCC(N2CCCCC2)CC1)c1ccc(S(=O)(=O)Nc2ccccc2Oc2ccccc2)cc1` [Example 152, N-(3-[1,4′]Bipiperidhlyl-1′-yl-propyl)-4-(2-phenoxy-phenylsulfamoyl)-benzamide], for which the Ki in experiment [1] (setting [3]) lay in the range of 20 to 100 nM. The IC50 in experiment [2] (setting [4]) lay in the range of 20 to 100 nM.
Consider `O=C(NCCN1CCN(c2ccccn2)CC1)c1ccc(S(=O)(=O)Nc2ccccc2Oc2ccc(Cl)cc2Cl)cc1` [Example 20, 4-[2-(2,4-Dichloro-phenoxy)-phenylsulfamoyl]-N-[2-(4-pyridin-2-yl-piperazin-1-yl)-ethyl]-benzamide trifluoroacetate], for which the Ki in experiment [1] (setting [3]) is 20 to 100 nM. Moreover, the IC50 in experiment [2] (setting [4]) lay in the range of 20 to 100 nM.
In the case of `O=C(NCCc1ccc(C2=NCCN2)cc1)c1ccc(S(=O)(=O)Nc2ccccc2Oc2ccc(Cl)cc2Cl)cc1` [Example 2, 4-[2-(2,4-Dichloro-phenoxy)-phenylsulfamoyl]-N-{2-[4-(4,5-dihydro-1H-imidazol-2-yl)-phenyl]-ethyl}-benzamide trifluoroacetate], the Ki in experiment [1] (setting [3]) was under 20 nM. Also, in experiment [2] (setting [4]), the IC50 is under 20 nM.
In the case of `O=C(Nc1ccc(N2CCC(N3CCCCC3)CC2)cc1)c1ccc(S(=O)(=O)Nc2ccccc2Oc2ccc(Cl)cc2Cl)cc1` [Example 8, N-(4-[1,4′]Bipiperidinyl-1′-yl-phenyl)-4-[2-(2,4-dichloro-phenoxy)-phenylsulfamoyl]-benzamide], the Ki in experiment [1] (setting [3]) is under 20 nM. In addition, the IC50 in experiment [2] (setting [4]) lay within 20 to 100 nM.
The matching figures for `O=C(NCCCN1CCC(N2CCCCC2)CC1)c1ccc(S(=O)(=O)Nc2ccccc2Oc2ccc(Cl)cc2Cl)cc1` [Example 3, N-(3-[1,4′]Bipiperidinyl-1′-yl-propyl)-4-[2-(2,4-dichloro-phenoxy)-phenylsulfamoyl]-benzamide]: under 20 nM and under 20 nM.
The matching figures for `O=C(CCNC(=O)c1ccc(S(=O)(=O)Nc2ccccc2Oc2ccc(Cl)cc2Cl)cc1)NCC1CCNCC1` [Example 37, 4-[2-(2,4-Dichloro-phenoxy)-phenylsulfamoyl]-N-{2-[(piperidin-4-ylmethyl)-carbamoyl]-ethyl}-benzamide acetate/hydrochloride mixed salt]: 20 to 100 nM and 20 to 100 nM.
As for `O=C(NCCCN1CCN(c2ccncc2)CC1)c1ccc(S(=O)(=O)Nc2ccccc2Oc2ccc(Br)cc2)cc1` [Example 114, 4-[2-(4-Bromo-phenoxy)-phenylsulfamoyl]-N-[3-(4-pyridin-4-yl-piperazin-1-yl)-propyl]-benzamide], in experiment [1] (setting [3]), the Ki is under 20 nM. The IC50 in experiment [2] (setting [4]) was under 20 nM.
As for `CN1CCN(C(=O)C2CCN(S(=O)(=O)c3ccc(NCC(c4ccccc4)c4ccccc4)c(C(=O)N4CCOCC4)c3)CC2)CC1` [NVP-SAA164, 4-{2-[(2,2-diphenyl-ethyl)-amino]-5-{4-[4-[(4-methyl-1-piperazinyl)-carbonyl]-1-piperidinyl]-sulfonyl}-benzoyl}-morfoline, reference compound], the Ki in experiment [1] (reference compounds, binding test, read-out: Ki) is 8 nM. For the same compound, in experiment [2] (reference compounds, functional test, read-out: IC50), the IC50 is 33 nM.
Turning to `O=C(NCCCN1CCC(N2CCCCC2)CC1)c1ccc(S(=O)(=O)Nc2ccccc2Oc2ccc(C(F)(F)F)cc2)cc1` [Example 129, N-(3-[1,4′]Bipiperidinyl-1′-yl-propyl)-4-[2-(4-trifluoromethyl-phenoxy)-phenylsulfamoyl]-benzamide], in experiment [1] (setting [3]), the Ki is 20 to 100 nM. For the same compound, in experiment [2] (setting [4]), the IC50 fell in the range of 20 to 100 nM.
Take `O=C(Nc1ccc(N2CCC(N3CCCCC3)CC2)cc1)c1ccc(S(=O)(=O)Nc2ccccc2Oc2ccc(Br)cc2Cl)cc1` [Example 169, N-(4-[1,4′]Bipiperidinyl-1′-yl-phenyl)-4-[2-(4-bromo-2-chloro-phenoxy)-phenylsulfamoyl]-benzamide]: the Ki in experiment [1] (setting [3]) was under 20 nM. Moreover, in experiment [2] (setting [4]), the IC50 is under 20 nM.
Regarding `O=C(NCCCN1CCCCC1)c1ccc(S(=O)(=O)Nc2ccccc2Oc2ccc(Cl)cc2Cl)cc1` [Example 76, 4-[2-(2,4-Dichloro-phenoxy)-phenylsulfamoyl]-N-(3-piperidin-1-yl-propyl)-benzamide], the Ki in experiment [1] (setting [3]) was 20 to 100 nM. For the same compound, in experiment [2] (setting [4]), the IC50 was 20 to 100 nM.
As for `O=C(NCCCCC1CCNCC1)c1ccc(S(=O)(=O)Nc2ccccc2Oc2ccc(Cl)cc2Cl)cc1` [Example 170, 4-[2-(2,4-Dichloro-phenoxy)-phenylsulfamoyl]-N-(4-piperidin-4-yl-butyl)-benzamide hydrochloride], in experiment [1] (setting [3]), the Ki was under 20 nM. In addition, the IC50 in experiment [2] (setting [4]) was under 20 nM.
Consider `O=C(CCNC(=O)c1ccc(S(=O)(=O)Nc2ccccc2Oc2ccc(Cl)cc2Cl)cc1)NCCC1CCNCC1` [Example 56, 4-[2-(2,4-Dichloro-phenoxy)-phenylsulfamoyl]-N-[2-(2-piperidin-4-yl-ethylcarbamoyl)-ethyl]-benzamide hydrochloride], for which, in experiment [1] (setting [3]), the Ki was under 20 nM. Further, in experiment [2] (setting [4]), the IC50 fell in the range of 20 to 100 nM.
The matching figures for `O=C(NCCN1CCN(c2cnccn2)CC1)c1ccc(S(=O)(=O)Nc2ccccc2Oc2ccc(Br)cc2Cl)cc1` [Example 159, 4-[2-(4-Bromo-2-chloro-phenoxy)-phenylsulfamoyl]-N-[2-(2,3,5,6-tetrahydro-[1,2′]bipyrazinyl-4-14)-ethyl]-benzamide]: 20 to 100 nM and 20 to 100 nM.
`O=C(NCCCN1CCC(N2CCCCC2)CC1)c1ccc(S(=O)(=O)Nc2ccccc2Oc2ccc(Br)cc2Cl)cc1` [Example 157, N-(3-[1,4′]Bipiperidinyl-1′-yl-propyl)-4-[2-(4-bromo-2-chloro-phenoxy)-phenylsulfamoyl]-benzamide]: the Ki in experiment [1] (setting [3]) was under 20 nM. Besides, the IC50 in experiment [2] (setting [4]) is under 20 nM.
With `Cc1cccc(N2CCN(CCNC(=O)c3ccc(S(=O)(=O)Nc4ccccc4Oc4ccc(Cl)cc4Cl)cc3)CC2)n1` [Example 36, 4-[2-(2,4-Dichloro-phenoxy)-phenylsulfamoyl]-N-{2-[4-(6-methyl-pyridin-2-yl)-piperazin-1-yl]-ethyl}-benzamide], the Ki in experiment [1] (setting [3]) is under 20 nM. In addition, the IC50 in experiment [2] (setting [4]) was 20 to 100 nM.
The matching figures for `CC(CNC(=O)c1ccc(S(=O)(=O)Nc2ccccc2Oc2ccc(Cl)cc2Cl)cc1)N1CCN(c2ccncc2)CC1` (centres unmarked) [Example 28, 4-[2-(2,4-Dichloro-phenoxy)-phenylsulfamoyl]-N-{2-[4-pyridin-4-yl-piperazin-1-yl)-propyl]-benzamide]: under 20 nM and under 20 nM.
For `O=C(NCCc1ccc(C2=NCCN2)cc1)c1ccc(S(=O)(=O)Nc2ccccc2Oc2ccc(Cl)c(Cl)c2)cc1` [Example 4, 4-[2-(3,4-Dichloro-phenoxy)-phenylsulfamoyl]-N-{2-[4-(4,5-dihydro-1H-imidazol-2-yl)-phenyl]-ethyl}-benzamide], the Ki in experiment [1] (setting [3]) was under 20 nM. For the same compound, the IC50 in experiment [2] (setting [4]) is under 20 nM.
